A word on the inhibition: it is the change of the read-out against control, counted positive when it falls.

SMILES strings stand for the structures. Some results are limits rather than exact numbers.

The first experiment concerns the target T1, hDGAT1 (Homo sapiens, UniProt O75907).
T1 sequence (O75907 1-488): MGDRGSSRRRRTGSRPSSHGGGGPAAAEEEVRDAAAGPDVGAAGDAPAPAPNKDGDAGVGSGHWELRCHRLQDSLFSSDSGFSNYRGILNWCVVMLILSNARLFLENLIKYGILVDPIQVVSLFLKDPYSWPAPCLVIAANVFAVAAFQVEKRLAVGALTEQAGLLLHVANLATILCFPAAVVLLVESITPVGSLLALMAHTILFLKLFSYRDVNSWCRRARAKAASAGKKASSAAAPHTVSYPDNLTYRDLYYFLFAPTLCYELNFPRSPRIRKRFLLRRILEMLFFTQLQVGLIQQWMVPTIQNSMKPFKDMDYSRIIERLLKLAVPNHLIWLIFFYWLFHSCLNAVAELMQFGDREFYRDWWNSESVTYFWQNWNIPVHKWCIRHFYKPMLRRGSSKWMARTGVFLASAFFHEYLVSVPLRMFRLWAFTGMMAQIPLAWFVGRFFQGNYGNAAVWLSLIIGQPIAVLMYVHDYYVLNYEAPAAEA
As to the kind of experiment: In-vitro DGAT1 assay (14C oleoyl CoA, hDGAT1 microsomes from Sf9 cells). The following applies: at 1 μM.
Turning to `O=C(Nc1ccc(-c2ccc3c(c2)C(=O)N([C@H]2CC[C@H](C(=O)O)CC2)C3)cc1)c1ccc(C(F)(F)F)cc1` [Example 563, (1r,4r)-4-(1-Oxo-6-(4-(4-(trifluoromethyl)benzamido)phenyl)isoindolin-2-yl)cyclohexanecarboxylic acid], the “% Inhibition of hDGAT1” value is on record as “+ (10-50% Inhibition)”.
Still for that read-out and setting: as for `CC(C)[C@@H](C(=O)O)N1Cc2ccc(-c3ccc(NC(=O)c4ccc(-c5ccccc5)cc4)cc3F)cc2C1=O` [Example 602, (S)-2-(6-(4-([1,1′-Biphenyl]-4-ylcarboxamido)-2-fluorophenyl)-1-oxoisoindolin-2-yl)-3-methylbutanoic acid], the entry is “++ (>50% Inhibition)”.

Still in this experiment, the particulars now being: read-out: % Inhibition of hDGAT1.
Consider `CC(C)[C@@H](C(=O)O)N1Cc2ccc(-c3ccc(NC(=O)Nc4cc(F)cc(F)c4)cc3)cc2C1=O` [Example 30, (S)-2-(6-(4-(3-(3,5-Difluorophenyl)ureido)phenyl)-1-oxoisoindolin-2-yl)-3-methylbutanoic acid], for which the inhibition at 1 µM was in the range of 10 to 50%.
Still for that read-out and setting: as for `CC(C)[C@@H](C(=O)O)N1Cc2cc(-c3ccc(NC(=O)Nc4ccc(C(F)(F)F)cc4)cc3)ccc2C1=O` [Example 245, (S)-3-Methyl-2-(1-oxo-5-(4-(3-(4-(trifluoromethyl)phenyl)ureido)phenyl)isoindolin-2-yl)butanoic acid], the figure is above 50%.
Still for that read-out and setting: the same measure for `CC(C)[C@@H](C(=O)O)N1Cc2ccc(-c3ccc(NC(=O)Nc4c(F)cccc4F)cc3)cc2C1=O` [Example 20, (S)-2-(6-(4-(3-(2,6-Difluorophenyl)ureido)phenyl)-1-oxoisoindolin-2-yl)-3-methylbutanoic acid]: 10 to 50%; for `Cc1oc(-c2ccccc2)nc1C(=O)Nc1ccc(-c2ccc3c(c2)C(=O)N(C2CCCC(C(=O)O)C2)C3)cc1` (stereo not drawn) [Example 553, 3-(6-(4-(5-Methyl-2-phenyloxazole-4-carboxamido)phenyl)-1-oxoisoindolin-2-yl)cyclohexanecarboxylic acid]: above 50%.
The same measure, in the same setting: as for `CC(C)[C@@H](C(=O)O)N1Cc2ccc(-c3ccc(NC(=O)c4ccc(Cl)cc4Cl)cc3)cc2C1=O` [Example 134, (S)-2-(6-(4-(2,4-Dichlorobenzamido)phenyl)-1-oxoisoindolin-2-yl)-3-methyl butanoic acid], the figure is 10 to 50%.
Take `CC(C)[C@@H](C(=O)O)N1Cc2ccc(-c3ccc(NC(=O)Nc4cc(Cl)ccc4Oc4ccccc4)cc3)cc2C1=O` [Example 46, (S)-2-(6-(4-(3-(5-Chloro-2-phenoxyphenyl)ureido)phenyl)-1-oxoisoindolin-2-yl)-3-methylbutanoic acid]: the inhibition at 1 µM was above 50%.
Still for that read-out and setting: as for `CC(C)[C@@H](C(=O)O)N1Cc2cc(-c3ccc(NC(=O)Nc4cccc(C#N)c4)cc3)ccc2C1=O` [Example 255, (S)-2-(5-(4-(3-(3-Cyanophenyl)ureido)phenyl)-1-oxoisoindolin-2-yl)-3-methylbutanoic acid], the figure is above 50%; as for `CC(C)(C)c1ccc(C(=O)Nc2ccc(-c3ccc4c(c3)C(=O)N(C(C)(C)C(=O)O)C4)cc2)cc1` [Example 519, 2-(6-(4-(4-(tert-Butyl)benzamido)phenyl)-1-oxoisoindolin-2-yl)-2-methyl propanoic acid], above 50%; as for `Cc1ccc(NC(=O)Nc2ccc(-c3ccc4c(c3)C(=O)N([C@H](C(=O)O)C(C)C)C4)cc2F)cc1C` [Example 436, (S)-2-(6-(4-(3-(3,4-Dimethylphenyl)ureido)-3-fluorophenyl)-1-oxoisoindolin-2-yl)-3-methylbutanoic acid], above 50%.
Same read-out and setting: as for `CC(C)[C@@H](C(=O)O)N1Cc2ccc(-c3ccc(NC(=O)Nc4ccc(Cl)cc4Oc4ccccc4)cc3)cc2C1=O` [Example 44, (S)-2-(6-(4-(3-(4-Chloro-2-phenoxyphenyl)ureido)phenyl)-1-oxoisoindolin-2-yl)-3-methylbutanoic acid], the figure is above 50%.

For the origin of these results see US8748426B2, “Inhibitors of diacylglycerol acyl transferase” (Piramal Enterprises Limited, priority 2009, dated 2014).
